Results published in PMC4449000, “Acyclovir Has Low but Detectable Influence on HLA-B*57:01 Specificity without Inducing Hypersensitivity” (PLoS ONE, 2015).
Values joined by “and” are separate entries in the source; they are usually repeats but may differ in a detail not shown here. Equal entries are not always repeated. Structures can show the parent of a compound that is named as a salt. Where two headings read alike, the source gives them in different places. Ends that are not written are not given here.

Assays:
[1] = test system: HLA-B*57:01 positive PBMC; assay: Culture and detection of drug responsive T cells (intracellular IFN-γ, flow cytometry); type: cell-based, human; settings: 10 μg/mL drug, 14 day culture, restimulation with drug treated C1R.B57; two of two donors
Method: Drug responsive short-term T cell lines were produced from cryopreserved PBMC, as previously described. […] From day 3 and every 3 days, 50% of media was replaced and 20 U/ml of recombinant human interleukin (IL)-2 (Peprotech) was added to cultures. […] Samples were surface labeled for CD4 and CD8 expression on ice and then fixed and permeabilized for the detection of intra-cellular IFN-γ, as previously described. Abacavir responsive cells were then detected using flow cytometry (Gallios; Beckman Coulter). Lymphocytes were gated on the basis of forward and side scatter properties. The lymphocyte gate was then gated for CD8, but not CD4, positivity using a Boolean logic gate. The frequency of CD8 and IFN-γ double positive cells was determined using Kaluza software (Beckman Coulter).

[2] = test system: HLA-B*57:01 single allele transfected 721.221 cell line; settings: abacavir; not measured in this paper, no reference printed at b57; cited from earlier work
purified HLA-B*57:01 [3] = target: T1, purified HLA-B*57:01 (Homo sapiens, UniProt P01889, D201E/D98Y/E176V/E187L/E204Q/E69M/E70A/G107R/I90N/K202T/L105A/L119I/N104I/N87E/Q89R/Q94S/R106L/R155S/R180L/R86G/S101N/S121V/S35A/S48A/T118I/V36M/Y140S/Y91M); settings: previously observed; cited from earlier work
HLA-B*57:01 = HLA-B*57:01 (Homo sapiens, UniProt P01889, D201E/D98Y/E176V/E187L/E204Q/E69M/E70A/G107R/I90N/K202T/L105A/L119I/N104I/N87E/Q89R/Q94S/R106L/R155S/R180L/R86G/S101N/S121V/S35A/S48A/T118I/V36M/Y140S/Y91M); assay: Direct binding of radiolabeled […] to HLA-B*57:01 without competitor peptide; settings: increasing doses of drug, four experimental runs in triplicates (Fig 6A)
Method: (§1) Quantitative assays to measure the binding affinity of peptides to purified HLA-B*57:01 molecules based on the inhibition of binding of a radiolabeled standard peptide were performed as previously described. Briefly, 1–10 nM of radiolabeled peptide was co-incubated at room temperature with 1 nM to 1 μM purified HLA-B*57:01 in the presence of 1–3 μM human β2-microglobulin (Scripps Laboratories; San Diego, CA) and a mixture of protease inhibitors. After a 2-day incubation, binding of the radiolabeled peptide to the MHC class I molecule was determined by capturing MHC/peptide complexes on Greiner Lumitrac 600 microplates (Greiner Bio-One; Monroe, North Carilina) coated with the W6/32 antibody, and measuring bound counts per minute (cpm) using the TopCount microscintillation […] counter (PerkinElmer; Waltham, Massachusetts). For competition assays, the concentration of peptide yielding IC50 of the binding of the radiolabeled peptide was calculated. Peptides were typically tested at six different concentrations covering a 100,000-fold dose range.
(§2) For direct binding studies in the absence of a competitor peptide, a purified peptide with sequence […] was ordered from Synthetic Biomolecules (San Diego, CA) and its affinity for either HLA-B*57:01 or HLA-B*58:01 was tested in the presence or absence of abacavir, or acyclovir, in a dose dependent manner.

HLA-B*58:01 = HLA-B*58:01 (Homo sapiens, UniProt P01889, A329T/C349S/D201E/D98Y/E176V/E187L/E204Q/E69T/G107R/I218V/I90N/K202T/L105A/L119I/N104I/N87E/Q89R/Q94S/R106L/R155S/R180L/R86G/S101N/S121R/S35A/S48A/T118I/V127L/V306I/V36M/Y140S/Y91M); assay: Direct binding of radiolabeled […] to HLA-B*58:01 (control); settings: control allele (Fig 6B)
Method: as §1, §2

purified HLA-B*57:01 [4] = target: T1, purified HLA-B*57:01; assay: HLA binding assay: inhibition of binding of a radiolabeled standard peptide to purified HLA-B*57:01 (competition); settings: for number of the 7 peptides ending in I with increased affinity for HLA-B*57:01: 7 individual peptides with I at P9, two independent runs in triplicates (Fig 5); for IC50: Mean ± SEM, S5 Fig, unit inferred
[5] = test system: HLA-B*57:01 single allele transfected 721.221 cell line; assay: Peptide elution and LC-MS identification from drug-treated cells; type: cell-based, human
Method: For elution studies, 4–5 x 10^9 cells from the HLA-B*57:01 single allele transfected 721.221 cell line were used. Treated cells were incubated with acyclovir at a concentration of 500 μg/mL for 14 hr at 37°. Cells were harvested and stored at -80°C. Upon thawing, cells were lysed using cell lysis buffer in the presence of protease inhibitors. The lysate was centrifuged at 100,000 x g for 1 hr and the supernatant was collected and passed through a 0.8/0.2 μm filter (VWR International, TX). The filtrate was collected and passed through a sepharose CL-4B (Sigma-Aldrich, MO) column to capture any remaining materials in the lysate that may clog the antibody columns. The filtrate was then passaged through a column packed with protein A sepharose (PAS) beads (sigma) coated with MK-D6 (MTCC HB-3, VA) antibody which served to as an irrelevant antibody (specific for the mouse class II molecule, I-A^d) used to derive a negative control peptide extract. Next, the filtrate was passed through a second PAS column coated with W6/32 antibody (MTCC HB-95) which captures HLA class I molecules. The columns were washed sequentially with: 1) 2 column volumes of lysis buffer, 2) 20 column volumes of 20 mM Tris-HCL (pH 8.0, 150 mM NaCl), 3) 20 column volumes of 20 mM Tri-HCl (pH 8.0, 1.0 M NaCl), and 4) 20 column volumes of 20 mM Tris-HCl (pH 8.0), and then eluted with 4 column volumes of 0.2 M glacial acetic acid. The eluted peptides were then collected and spun at 3,500g at 4°C until 98% of the solution had passed through Millipore ultrafiltration units with a 3,500 Da cut-off (EMD Millipore, MA) to exclude β-2 microglobulin. The filtrate was then collected and concentrated in vacuo for LC-MS analysis.
Peptides were analyzed by nanoflow high-performance liquid chromatography (HPLC)/microelectrospray ionization, coupled directly to a Thermo Fisher Scientific FT-ICR mass spectrometer, equipped with a home-built, front-end electron transfer dissociation (FETD) source. An aliquot of peptide sample was taken to dryness in a vacuum concentrator. Peptides were amidated in a solution that contained 1M histamine-HCl (20 μL) in 1M pyridine-HCl buffer and 0.1M EDC in pyridine-HCl buffer. The solution was sonicated for 3 hours before being dried in a vacuum concentrator and then reconstituted in 0.1% acetic acid.
Data were acquired as previously described. In brief, a pre-column, loaded with 5×10^7 to 2×10^8 cell equivalents of HLA-B*57:01 eluted peptides was connected with polytetrafluoroethylene tubing (0.06-in. o.d. and 0.012-in. i.d.; Zeus Industrial Products) to the end of an analytical HPLC column (360 μm o.d.×50 μm i.d.) containing 6–7 cm of C18 reverse-phase packing material (5-μm particles; YMC). […]

IC50 (purified HLA-B*57:01 [4]; 0.5 mg/mL acyclovir, p < 0.01 vs vehicle, read-out: IC-50 for HLA-B*57:01, 0.5 mg/mL acyclovir) | IC50 (purified HLA-B*57:01 [4]; vehicle, read-out: IC-50 for HLA-B*57:01, vehicle) | Molecule | drug specific CD8+/IFN-γ+ T-cell response in PBMC primed and restimulated with the same drug [1] | peptides with a C-terminal valine presented exclusively in the presence of the drug [2] | increase in affinity for I and V peptides in the presence of abacavir (PSCPL) (purified HLA-B*57:01 [3]) | increase in the level of bound peptide […] on HLA-B*57:01 (HLA-B*57:01; radiolabeled […]) | effect of drug on binding of […] to HLA-B*58:01 (HLA-B*58:01; radiolabeled […]) | number of the 7 peptides ending in I with increased affinity for HLA-B*57:01 (purified HLA-B*57:01 [4]) | largest change / increase of peptide binding affinity (IC50) for HLA-B*57:01 in the presence of the drug (purified HLA-B*57:01 [4]; individual peptides, summary statement) | unique peptide sequences identified from the drug treated sample only ([5]; acyclovir 500 μg/mL, 14 hr, 37°, excludes 91 sequences present in both samples) | number of eluted peptides with a C-terminal isoleucine in the presence of the drug ([5]; acyclovir 500 μg/mL, 14 hr, includes three peptides present in both samples, vs four in untreated, p = 0.073) | Number of peptides that do not have isoleucine at C terminus (Treated) ([5]; acyclovir treated cells, peptides found in both treated and untreated samples not included) | Number of peptides that have isoleucine at C terminus (Treated) ([5]; acyclovir treated cells, peptides found in both treated and untreated samples not included, one-sided Fisher's exact test p = 0.0726) | increase in the level of bound peptide KAAKYRVSV on HLA-B*57:01 (HLA-B*57:01; radiolabeled KAAKYRVSV) | effect of drug on binding of KAAKYRVSV to HLA-B*58:01 (HLA-B*58:01; radiolabeled KAAKYRVSV) | change in HLA-B*57:01 affinity of peptides ending in C (purified HLA-B*57:01 [4]; individual peptides with C at P9 (S4 Fig)) | effect on HLA-B*57:01 binding affinity for three 9-mer peptides with a C-terminal valine (purified HLA-B*57:01 [4]; screen of seven drugs, one experimental run in quadruplicates (S3 Fig))
 |  | Nc1nc(NC2CC2)c2ncn([C@H]3C=C[C@@H](CO)C3)c2n1 [abacavir, Abacavir sulfate] | expanded population of CD8 positive / IFN-γ positive T-cells | 15 | 10 fold | up to 5 fold | unaffected | all seven | ≤ 1000 fold and 1,000 fold |  |  |  |  |  |  |  | 
 |  | Nc1nc2c(ncn2COCCO)c(=O)[nH]1 [acyclovir] | could not detect any acyclovir specific response |  |  |  |  | two |  | 169 | twelve | 160 | 9 | 2 fold | unaffected | None of the peptides ending in C showed any change | small but consistent increase
7.1 ± 1 nM | 13.7 ± 1.3 nM | RARQLNYTI |  |  |  |  |  |  |  |  |  |  |  |  |  |  | 
